Laboratory results as given in paper PMC12663132, “Assessment of cytotoxicity of some synthetic compounds against breast carcinoma spheroids with subsequent analysis of pro-apoptotic and gene expression” (Scientific Reports, 2025).
Like-named read-outs stand apart in the source and are kept apart here.

Key:
hTERT-RPE1 3D spheroids = assay: Cytotoxicity on normal RPE1 3D spheroids (acid phosphatase method); assay type: cell-based, human; conditions: 120 h
Method: These cell lines were generously provided by Prof. Stig Linder, Karolinska Institute (Sweden).
Cytotoxicity was calculated according to the following equation: […]

MCF7 3D spheroids = assay: Cytotoxicity on MCF7 3D multicellular spheroids (acid phosphatase method); conditions: for cytotoxicity at 50 µM: MCF7, 120 h, read-out: Mean of % cytotoxicity ± S.D
Method: (§1) Eighty pre-plated synthetic chemical compounds were screened on two human cell lines: MCF7 (ATCC® HTB-22™), a Caucasian breast adenocarcinoma model, and hTERT-RPE-1 (ATCC® CRL-4000™), a normal retinal epithelial cell line immortalized by hTERT telomerase. […] The cells were cultured in DMEM-F12 medium supplemented with L-glutamine and 10% fetal bovine serum, all were purchase from Biowest (Biotechnology company in Nuaillé, France), and maintained in a controlled incubator environment set at 37 °C with 5% CO2 and 95% humidity.
3-D spheroid models were generated from MCF7 cancer and hTERT-RPE1 normal cells were seeded at 10,000 and 50,000 cells/well, respectively, in poly-HEMA coated round bottom plates according to the protocol previously mentioned[44]. The cells were incubated for 5 days to generate the spheroids with diameter of 500 ± 20 µm. The spheroids were imaged using Olympus S100, U-CMAD3 camera connected to Olympus inverted microscope and the diameter of the spheroids was measured using Cellscen-Entry software. Test compounds were added in triplicate to a final concentration of 50 µM and were incubated for 120 h. […] At the end of incubation, cytotoxicity was determined using the acid phosphatase method[45]. After washing twice with 250 μL PBS buffer, 100 μL of 0.1 M sodium citrate, 0.1% Triton X-100, p-nitrophenylphosphate (2 mg/ml) (Pierce Biotechnology Inc., Rockford, IL) was added to each well and incubated for 1.5 h at 37 °C. After incubation, 10 μL of 1N NaOH stop solution was added to each well, and absorbance was read at 405 nm. Cytotoxicity was calculated according to the following equation:

MCF7 = assay: Cytotoxicity on MCF7 monolayers (MTT assay); conditions: Homo sapiens, MCF7, 72 h, read-out: Mean of % cytotoxicity ± SD
Method: as §1
MCF7 cells were seeded in flat-bottom 96-well plates with a concentration of 20,000 cells/well, and were left overnight. The compounds were tested at a final concentration of 50 µM. Doxorubicin was used as a positive control and 0.5% DMSO as a negative control. The treatment duration was 72 h. The cytotoxicity was then assessed using the MTT assay, as described by Mosmann[43].

MCF7 cell line = assay: Pro-apoptotic activity, M30 Cytodeath ELISA (CK18-Asp396); assay type: cell-based, human; conditions: MCF7 monolayers, 50 µM, 24 h
Method: The pro-apoptotic activity is measured as fold increase of the spontaneous apoptosis occurred in the DMSO treated negative control ± standard deviation.
The cutoff was determined as fourfold increase in the apoptosis signal of the negative control.
The accumulation of CK18-Asp396 in treated MCF7 cell cultures was quantified using the M-30 Cytodeath® ELISA kit according to the manufacturer’s instructions. Briefly, the MCF7 cell line monolayers were exposed to the chemical compounds at a concentration of 50 µM. Following 24 h of incubation, the culture medium was supplemented with 0.1% NP40. Subsequently, aliquots of 25 µL from each well, containing CK18 released into the medium from attached and floating cells and cell fragments, were subjected to the ELISA assay. Cleaved CK18 levels were determined by measuring the absorbance at 450 nm[46].

MCF7 breast cancer cells = assay: Gene expression profiling by real-time PCR (p53, Bax, Bcl-2, IL-6, TNF-alpha, MMP1); assay type: cell-based, human; conditions: MCF7, IC50 concentration, 24 h, qRT-PCR
Method: Total RNA was extracted from both control and treated cells using the RNeasy kit. Up to one million cells were subjected to disruption in Buffer RLT, homogenization, and ethanol treatment to promote selective binding of RNA to the RNeasy membrane. High-purity RNA was subsequently eluted using RNase-free water. All binding, washing, and elution steps were performed using centrifugation in a micro-centrifuge. The sample was then applied to an RNeasy Mini spin column, enabling total RNA retention on the membrane while contaminants were efficiently eliminated. The RNA was then used as a template for real-time PCR to quantify the mRNA levels of genes. Two sets of primers were used—one for the IL-6, TNF-alpha, MMP1, p53, Bcl-2, and Bax genes and another for the endogenous control gene, β-actin (Table 6). The real-time PCR reaction was carried out with the following cycling conditions: 50 °C for 45 min (cDNA synthesis), followed by 40 cycles of 95 °C for 10 s and 60 °C for 60 s. A negative control was included to ensure primer specificity and rule out contamination. Finally, the statistical analysis of the expression of the genes was performed using one-way ANOVA followed by the Tukey–Kramer post-test.

[1] = Homo sapiens, MCF7, read-out: IC50 (µM) for MCF7 ± SD, MCF7 3D spheroids
[2] = read-out: IC50 (µM) for MCF7 ± SD, MCF7 3D spheroids

SMILES: COC(=O)c1cc(C=C(C#N)C#N)c(OC)cc1OC [H09, methyl 5-(2,2-dicyanovinyl)-2,4-dimethoxybenzoate]
- Cytotoxic effect% ± SD RPE1(50µM) (hTERT-RPE1 3D spheroids): 41.2 ± 1.6%
- cytotoxicity at 50 µM (MCF7 3D spheroids; Homo sapiens): 80.8 ± 0.77%
- IC50 (MCF7 3D spheroids; [1]): 41.2 ± 0.83 µM
- cytotoxicity at 50 µM (MCF7): 86.2 ± 1.7%
- Fold increase (apoptosis signal vs DMSO negative control) (MCF7 cell line): 2.56 fold

SMILES: N.N.[Cl][Pt][Cl] [cisplatin, reference compound]
- Expression of inflammatory markers (IL-6, TNFα, MMP1) (MCF7 breast cancer cells): milder pro-inflammatory effects compared to the tested three compounds
- IC50 (MCF7 3D spheroids; [2]): 31.7 ± 1.5 µM

SMILES: CCOC(=O)c1c(NS(=O)(=O)c2cccc3nsnc23)sc(C)c1C [F03, ethyl 2-[(2,1,3-benzothiadiazol-4-ylsulfonyl)amino]-4,5-dimethylthiophene-3-carboxylate]
- Expression of apoptosis-related genes (Bax, P53, Bcl-2) (MCF7 breast cancer cells): moderate pro-apoptotic effect compared to the positive control
- Cytotoxic effect% ± SD RPE1(50µM) (hTERT-RPE1 3D spheroids): 34.4 ± 2.3%
- cytotoxicity at 50 µM (MCF7 3D spheroids; Homo sapiens): 91.5 ± 0.5%
- IC50 (MCF7 3D spheroids; [1]): < 26 µM
- IC50 (MCF7 3D spheroids; [2]): 18.8 ± 1.3 µM
- cytotoxicity at 50 µM (MCF7): 70 ± 4%

SMILES: O=C(NCCc1c[nH]c2ccccc12)Nc1ccc(Cl)cc1 [D08, N-(4-chlorophenyl)-N'-[2-(1H-indol-3-yl)ethyl]urea]
- Cytotoxic effect% ± SD RPE1(50µM) (hTERT-RPE1 3D spheroids): 39.4 ± 1%
- cytotoxicity at 50 µM (MCF7 3D spheroids; Homo sapiens): 74 ± 2.9%
- IC50 (MCF7 3D spheroids; [1]): 36.9 ± 0.6 µM
- cytotoxicity at 50 µM (MCF7): 97.7 ± 0.47%
- Fold increase (apoptosis signal vs DMSO negative control) (MCF7 cell line): 2.14 fold

SMILES: Nc1ccccc1SCC=CCSc1ccccc1N [C02, 2-({4-[(2-aminophenyl)thio]but-2-enyl}thio)aniline]
- Expression of apoptosis-related genes (Bax, P53, Bcl-2) (MCF7 breast cancer cells): moderate pro-apoptotic effect compared to the positive control
- Cytotoxic effect% ± SD RPE1(50µM) (hTERT-RPE1 3D spheroids): 18.3 ± 0.4%
- cytotoxicity at 50 µM (MCF7 3D spheroids; Homo sapiens): 87.3 ± 4.5%
- IC50 (MCF7 3D spheroids; [1]): < 26 µM
- IC50 (MCF7 3D spheroids; [2]): 25.3 ± 1.2 µM
- cytotoxicity at 50 µM (MCF7): 100 ± 0.003%

SMILES: COc1ccc(OCCC(=O)NNC(=S)Nc2cc(Cl)ccc2Cl)cc1 [F06, N1-(2,5-dichlorophenyl)-2-[3-(4-methoxyphenoxy)propanoyl]hydrazine-1-carbothioamide]
- Expression of apoptosis-related genes (Bax, P53, Bcl-2) (MCF7 breast cancer cells): greater ability to downregulate Bcl-2 while upregulating both P53 and Bax expression compared to the other compounds
- Cytotoxic effect% ± SD RPE1(50µM) (hTERT-RPE1 3D spheroids): 18.4 ± 0.5%
- cytotoxicity at 50 µM (MCF7 3D spheroids; Homo sapiens): 88 ± 2.5%
- IC50 (MCF7 3D spheroids; [1]): < 26 µM
- IC50 (MCF7 3D spheroids; [2]): 24.8 ± 0.6 µM
- cytotoxicity at 50 µM (MCF7): 80.1 ± 1.7%

SMILES: Cc1cccc(C)c1NC(=O)COC(=S)c1sc2ccccc2c1Cl [A07, 2-(2,6-dimethylanilino)-2-oxoethyl 3-chlorobenzo[b] thiophene-2-carbothioate]
- cytotoxicity at 50 µM (MCF7 3D spheroids; Homo sapiens): 75.1 ± 0.53%
- IC50 (MCF7 3D spheroids; [1]): 31.7 ± 1.2 µM
- cytotoxicity at 50 µM (MCF7): 36.5 ± 1.2%
- Fold increase (apoptosis signal vs DMSO negative control) (MCF7 cell line): 3.64 fold

SMILES: O=C1C2CCN(CC2)C1CSc1ccc(Cl)cc1 (centres unmarked) [F02, 2-{[(4-chlorophenyl)thio]methyl}quinuclidin-3-one]
- cytotoxicity at 50 µM (MCF7 3D spheroids; Homo sapiens): 52 ± 2.9%
- cytotoxicity at 50 µM (MCF7): 100 ± 0.003%

SMILES: O=C(O)c1ccc(-c2ccsc2)cc1 [H06, 4-(3-thienyl)benzoic acid]
- cytotoxicity at 50 µM (MCF7 3D spheroids; Homo sapiens): 26.1 ± 0.4%
- cytotoxicity at 50 µM (MCF7): 7.8 ± 0.23%
